# “Also recorded” adds a separate entry of the source.
# Tests used:
# [1] = mice on a high-fat diet supplemented with NR; cited from earlier work
# [2] = Fecal SCFA analysis by gas chromatography in piglets given NR solution; format: in vivo, piglets (Yorkshire/Hampshire crossbred)
# Text: Sixteen (n=16) Yorkshire/Hampshire crossbred piglets were obtained from the University of California, Davis Swine Teaching and Research Center and received on lactation day (“LD”) 14. Prior to arrive, the piglets were processed by the suppler between 1-3 days of age by administration of iron and an antibiotic ([…] for swine) as is common practice at the University of California, Davis Swine Facility. It is not common practice at the University of California, Davis Swine Facility to give a second dose of iron and antibiotics unless it becomes necessary. The piglets were from two litters (litters 15 and 17), weaned at 17 days of age, and randomly placed into one of two groups balanced for litter, sex, and weight. The animals were not acclimated to the facility at arrival and were subsequently acclimated to the test diet administration system. The piglets were weaned into a temperature-controlled room (approximately 27-29° C.) that contained 10 adjacent pens. The piglets were group-housed in the nursery room at the Swine Facility, which is an enclosed room with access restricted to trained personnel. The two groups were separated by one pen containing piglets of similar age. Each morning enough nicotinamide riboside (NR, I) in water solution was prepared for that day's dose administration according to the dose preparation protocol. At least 5 mL of prepared dose was reserved and immediately frozen after preparation each day for analysis of nicotinamide riboside (NR, I) for the purpose of confirming stability of the dose material. The doses were stored at refrigeration temperature while not in use. Nicotinamide riboside (NR, I) was dosed once per day in the morning and at the same time each day. Piglets in the control group received the same volume of plain water and were dosed on the same schedule. Starting on Day 1, animals in the nicotinamide riboside (NR, I) group were dosed once daily (in the morning) with 277 mg nicotinamide riboside (NR, I) per pig resuspended in water for seven days. After one week, animals were dosed once daily with 342 mg nicotinamide riboside (NR, I) per pig delivered in 2.5 mL for seven days. For Days 1 and 2, the nicotinamide riboside (NR, I) solution was prepared by resuspending 2770 mg nicotinamide riboside (NR, I) in 50 mL water, and 5 mL of this solution was delivered to each pig by squirting it into the back of the mouth using a 10 mL syringe with a piece of tubing attached to the end. To reduce the volume to more efficiently deliver the nicotinamide riboside (NR, I) solution, the 2770 mg was resuspended in 25 mL water and 2.5 mL of the solution was squirted into the back of the mouth of each pig using a 3 mL syringe for Days 3-7. For Days 8-14, 3420 mg nicotinamide riboside (NR, I) was resuspended in 25 mL water and 2.5 mL of this solution was delivered to each pig. Each day prior to dosing, 2.5 mL of the nicotinamide riboside (NR, I) (5 mL on Days 1 and 2) were placed into a separate tube and frozen. Fresh fecal samples were collected from each pig on Days 1 (baseline), 8 (Wk 1), and 14 (Wk 2), and frozen. When a freshly voided sample could not be obtained, the rectum was swabbed. A total of 100 mg of feces from each pig was used for SCFA analysis using gas chromatography with known standards for acetic acid, propionic acid, isobutyric acid, butyric acid, isovaleric acid, and valeric acid. Samples were extracted with 25% metaphosphoric acid and each extraction run in triplicate on a GC equipped with the PeakSimple Chromatography Data System. Data was analyzed using a one-way ANoVA or the non-parametric Kruskal-Wallis test if the distribution of values was not Gaussian. A conservative analysis of the data is presented below (animals that had to be swabbed to get a fecal sample) in Table 3 and an analysis of the data including the swab samples is in Table 8. The trends are similar, the p-values are not.
# [3] = 1 week of daily administration of 277 mg of NR in water
# [4] = Wk 1, 277 mg/pig once daily oral
# [5] = including the swab samples, Baseline, before dosing
# [6] = including the swab samples, Wk 1, 277 mg/pig once daily oral
# [7] = including the swab samples, third column group, headed 'Wk 1' again
# [8] = without swab samples, Baseline, before dosing
# [9] = without swab samples, Wk 1, 277 mg/pig once daily oral
# [10] = without swab samples, third column group, headed 'Wk 1' again
smiles,measurement,setting,value
"NC(=O)c1ccc[n+]([C@@H]2O[C@H](CO)[C@@H](O)[C@H]2O)c1 [NR, Nicotinamide riboside]",less weight gained on a high-fat diet,[1],40%
same,Fecal SCFA levels,[2]; [3],increased
same,"fecal acetic acid (C2), propionic acid (C3), and butyric acid (C4)",[2]; [3],marked increases
same,"Fecal SCFA Acetic Acid, Δ vs. baseline (NR)",[2]; [4],15.1 ppm
same,"Fecal SCFA Butyric Acid, Δ vs. baseline (NR)",[2]; [4],26.3 ppm
same,"Fecal SCFA Isobutyric Acid, Δ vs. baseline (NR)",[2]; [4],−3.4 ppm
same,"Fecal SCFA Isovaleric Acid, Δ vs. baseline (NR)",[2]; [4],−4.3 ppm
same,"Fecal SCFA Propionic Acid, Δ vs. baseline (NR)",[2]; [4],35.9 ppm
same,"Fecal SCFA Valeric Acid, Δ vs. baseline (NR)",[2]; [4],5.4 ppm
same,"Fecal SCFA Acetic Acid, Significant change from baseline within group",[2]; Wk 1 vs. baseline,No
same,"Fecal SCFA Butyric Acid, Significant change from baseline within group",[2]; Wk 1 vs. baseline,"statistically significant; also recorded: Yes, P < 0.05"
same,"Fecal SCFA Isobutyric Acid, Significant change from baseline within group",[2]; Wk 1 vs. baseline,No
same,"Fecal SCFA Isovaleric Acid, Significant change from baseline within group",[2]; Wk 1 vs. baseline,No
same,"Fecal SCFA Propionic Acid, Significant change from baseline within group",[2]; Wk 1 vs. baseline,"statistically significant; also recorded: Yes, P < 0.05"
same,"Fecal SCFA Valeric Acid, Significant change from baseline within group",[2]; Wk 1 vs. baseline,No
same,Fecal SCFA Isobutyric Acid,[2]; including the swab samples,7.9 ± 10.9 ppm
same,Fecal SCFA Propionic Acid,[2]; including the swab samples,51.5 ± 45.7 ppm
same,Fecal SCFA Valeric Acid,[2]; including the swab samples,7.8 ± 11.3 ppm
same,Fecal SCFA Acetic Acid,[2]; [5],43.5 ± 23.5 ppm
same,Fecal SCFA Butyric Acid,[2]; [5],11.1 ± 18.4 ppm
same,Fecal SCFA Isobutyric Acid,[2]; [5],9.5 ± 9.3 ppm
same,Fecal SCFA Isovaleric Acid,[2]; [5],16.8 ± 14.0 ppm
same,Fecal SCFA Propionic Acid,[2]; [5],15.3 ± 10.6 ppm
same,Fecal SCFA Valeric Acid,[2]; [5],2.4 ± 6.9 ppm
same,Fecal SCFA Acetic Acid,[2]; [6],58.6 ± 14.5 ppm
same,Fecal SCFA Butyric Acid,[2]; [6],37.4 ± 16.8 ppm
same,Fecal SCFA Isobutyric Acid,[2]; [6],6.1 ± 6.4 ppm
same,Fecal SCFA Isovaleric Acid,[2]; [6],12.5 ± 9.1 ppm
same,Fecal SCFA Propionic Acid,[2]; [6],51.2 ± 13.2 ppm
same,Fecal SCFA Valeric Acid,[2]; [6],7.8 ± 6.6 ppm
same,Fecal SCFA Acetic Acid,[2]; [7],70.1 ± 62.6 ppm
same,Fecal SCFA Butyric Acid,[2]; [7],41.2 ± 34.6 ppm
same,Fecal SCFA Isovaleric Acid,[2]; [7],11.3 ± 15.7 ppm
same,Fecal SCFA Isobutyric Acid,[2]; without swab samples,15.9 ± 10.6 ppm
same,Fecal SCFA Propionic Acid,[2]; without swab samples,90.0 ± 30.4 ppm
same,Fecal SCFA Valeric Acid,[2]; without swab samples,15.7 ± 11.5 ppm
same,Fecal SCFA Acetic Acid,[2]; [8],43.5 ± 23.5 ppm
same,Fecal SCFA Butyric Acid,[2]; [8],11.1 ± 18.4 ppm
same,Fecal SCFA Isobutyric Acid,[2]; [8],9.5 ± 9.3 ppm
same,Fecal SCFA Isovaleric Acid,[2]; [8],16.8 ± 14.0 ppm
same,Fecal SCFA Propionic Acid,[2]; [8],15.3 ± 10.6 ppm
same,Fecal SCFA Valeric Acid,[2]; [8],2.4 ± 6.9 ppm
same,Fecal SCFA Acetic Acid,[2]; [9],55.78 ± 13.4 ppm
same,Fecal SCFA Butyric Acid,[2]; [9],36.9 ± 18.3 ppm
same,Fecal SCFA Isobutyric Acid,[2]; [9],5.8 ± 6.5 ppm
same,Fecal SCFA Isovaleric Acid,[2]; [9],11.9 ± 9.8 ppm
same,Fecal SCFA Propionic Acid,[2]; [9],49.3 ± 13.3 ppm
same,Fecal SCFA Valeric Acid,[2]; [9],6.7 ± 6.7 ppm
same,Fecal SCFA Acetic Acid,[2]; [10],118.7 ± 55.01 ppm
same,Fecal SCFA Butyric Acid,[2]; [10],70.8 ± 21.9 ppm
same,Fecal SCFA Isovaleric Acid,[2]; [10],22.5 ± 15.5 ppm

# From patent publication US12433908B2, “Use of nicotinamide riboside, nicotinic acid riboside, and nicotinamide mononucleotide, reduced nicotinyl compounds, and nicotinoyl compound derivatives in infant formula for healthy development” (ChromaDex, Inc., priority 2016, dated 2025)
